Measurements published in patent US20220175692A1, “PRESYNAPTIC GLUTAMATE RELEASE INHIBITORS FOR DECREASING NMDA ANTAGONIST SIDE EFFECTS IN ANESTHESIA” (THE CLEVELAND CLINIC FOUNDATION, priority 2020, published 2022).

How the values were obtained:
[1] = test system: ketamine-induced psychological disturbances in adults scheduled for elective noncardiac surgery; assay: Pilot randomized, double-blind trial of lamotrigine before surgery with ketamine anesthesia; type: in vivo, human
Description: We report the finding of a pilot randomized and double-blind trial in which we tested the hypothesis that a single 300-mg dose of lamotrigine given a few hours before surgery reduces ketamine-induced psychological disturbances. We enrolled 46 adults (23 Lamotrigine, 23 placebo) 18-65 years who were scheduled for elective noncardiac surgery with general anesthesia with a planned overnight stay at Cleveland Clinic main campus between April 2019 and October 2019. All included patients provided written informed consent during their preoperative clinic visit. The trial was approved by Cleveland Clinic Institutional Review Board and was registered at clinicaltrails.gov [NCT03831854; PI Kamal Maheshwari; February 2019]. It was a priori defined as a pilot trial.
All patients received ketamine 1 mg/kg bolus at induction of anesthesia followed by a 5-μg/kg/min infusion which was stopped at the end of surgery. Anesthesia generally included propofol, a muscle relaxant, fentanyl, and sevoflurane. The primary outcome was presence of the psychologic disturbances measured 30-90 min after admission to the post-anesthesia care unit. We evaluated four key items of the Brief Psychiatric Rating Scale corresponding to positive symptoms of schizophrenia: conceptual disorganization, hallucinatory behavior, suspiciousness, and unusual thought content. Each symptom was rated 1-7 (1=not present, 2=very mild, 3=mild, 4=moderate, 5=moderately severe, 6=severe, 7=extremely severe). Secondary outcomes were opioid use, pain, and postoperative nausea or vomiting in the post-anesthesia care unit.

[2] = test system: psychologic disturbances associated with perioperative ketamine use; details: reported range across studies (Avidan et al. 2017); cited from earlier work
[3] = test system: ketamine-induced perceptual abnormalities in healthy subjects; details: 300 mg oral lamotrigine; cited from earlier work

Row | Structure (SMILES) | patients who displayed psychologic disturbances ([1]; all trial patients (lamotrigine and placebo groups), moderate dose of ketamine: 1 mg/kg bolus then 5-μg/kg/min infusion) [%] | incidence of psychologic disturbances associated with perioperative ketamine use [2] | effect on ketamine-induced perceptual abnormalities [3] | pain scores, difference in means lamotrigine vs placebo ([1]; 98.3% CI −1.7, 2.6, P=0.58) | Opioid use, median difference lamotrigine vs placebo ([1]; 98.3% CI −9.5, 5.0, P=0.63) | pain scores, mean±standard deviation ([1]; in the post-anesthesia care unit, lamotrigine 300 mg patients) | patients who experienced nausea or vomiting ([1]; in vivo) | patients with psychologic disturbances (four key items of the Brief Psychiatric Rating Scale) ([1]; single 300-mg dose of lamotrigine a few hours before surgery, ketamine 1 mg/kg bolus then 5-μg/kg/min infusion, measured 30-90 min after admission to post-anesthesia care unit, n=23)
1 | CNC1(c2ccccc2Cl)CCCCC1=O (centres unmarked) [ketamine] | 6 | 7% to 27 | – | – | – | – | – | –
2 | Nc1nnc(-c2cccc(Cl)c2Cl)c(N)n1 [lamotrigine] | – | – | significantly decreased | 0.5 | −2.3 | 4.9±3.1 | Five | No patients
